Assay results reported in patent publication US20020192233A1, “Human T cell response to MHC-binding motif clusters” (priority 2000, published 2002).

Tests used:
[1] = tested on: peripheral blood mononuclear cells from Mtb-immune (PPD skin-test positive) subjects; type: cell-based, human; conditions: for Phil # responders (n = 38) / Phil % responders (n = 38): Philippines cohort; for Phil # responders (n = 38) / Phil % responders (n = 38) / Prov # responders (n = 22) / Prov % responders (n = 22): positive if SI≧2.0, peptide 1 and 10 μg/ml; for Prov # responders (n = 22) / Prov % responders (n = 22): Providence cohort; for number of Mtb-immune responders (proliferative response): all 40 Mtb-immune subjects; for number of Mtb-immune responders (proliferative response) / % responders among Mtb-immune subjects: SI≧2.0
[2] = tested on: peripheral blood mononuclear cells from Mtb-naïve (PPD skin-test negative) subjects; test: Lymphoproliferation assay ([3H]thymidine, stimulation index), Mtb-naïve group; type: cell-based, human; conditions: 19 Mtb-naïve controls; SI≧2.0

Row | Substance | Phil # responders (n = 38) [1] | Phil % responders (n = 38) [1] | Prov # responders (n = 22) [1] | Prov % responders (n = 22) [1] | number of Mtb-immune responders (proliferative response) [1] | response to mitogen ([1]; PHA 1 μg/ml, the 41 subjects who were tested) | SI range [1] | Mtb-immune subjects showing an in vitro proliferative response ([1]; control antigen 5 μg/ml, 40 Mtb-immune subjects) | Mtb-naïve controls who responded [2] | % responders among Mtb-immune subjects ([1]; 40 Mtb-immune subjects)
1 | LPVEYLQVPSPSMGR (listed as Mycobacterium tuberculosis) [32-1, aa 6-20 of 32 kDa Mtb protein (Antigen 85A)] | 3 | 8% | 2 | 5% |  |  |  |  |  | 
2 | EYWGAQLNAMKP (listed as Mycobacterium tuberculosis) [32-11, aa 265-276 of 32 kDa Mtb protein (Antigen 85A)] | 3 | 8% | 1 | 3% |  |  |  |  |  | 
3 | RSLFPEFSELFAAFPSFAGL (listed as Mycobacterium tuberculosis) [16-1, aa 11-30 of 16 kDa Mtb protein] | 4 | 10% | 2 | 5% | six |  |  |  |  | 
4 | LKLGLVEFGGVAKLNAEVMS (listed as Mycobacterium tuberculosis) [14-3, aa 30-49 of 14 kDa Mtb protein] | 3 | 8% | 4 | 10% | six |  |  |  |  | 
5 | FSELFAAFPSFAGLRPTFDT (listed as Mycobacterium tuberculosis) [16-2, aa 17-36 of 16 kDa Mtb protein] | 4 | 10% | 1 | 3% |  |  |  |  |  | 
6 | LTIKAERTEQK (listed as Mycobacterium tuberculosis) [16-4, aa 74-84 of 16 kDa Mtb protein] | 0 | 0% | 5 | 13% |  |  |  |  |  | 
7 | VGLSMAASSALTLAIYHPQQ (listed as Mycobacterium tuberculosis) [32-6, aa 123-142 of 32 kDa Mtb protein (Antigen 85A)] | 4 | 10% | 6 | 15% | six |  |  |  |  | 
8 | AELPGVDPDKDVD (listed as Mycobacterium tuberculosis) [16-3, aa 54-66 of 16 kDa Mtb protein] | 0 | 0% | 1 | 3% | one |  |  |  |  | 
9 | RHVKPTGSAVVGLSMAASSA (listed as Mycobacterium tuberculosis) [32-5, aa 113-132 of 32 kDa Mtb protein (Antigen 85A)] | 2 | 5% | 8 | 20% | six |  |  |  |  | 
10 | SVVMPVGGQSSFYSDW (listed as Mycobacterium tuberculosis) [32-3, aa 67-82 of 32 kDa Mtb protein (Antigen 85A)] | 5 | 13% | 2 | 5% | six |  |  |  |  | 
11 | TFLTSELPGWLQ (listed as Mycobacterium tuberculosis) [32-4, aa 99-110 of 32 kDa Mtb protein (Antigen 85A)] | 2 | 5% | 2 | 5% |  |  |  |  |  | 
12 | MLGNAPSVVPNTTLGMHC (listed as Mycobacterium tuberculosis) [14-1, aa 1-18 of 14 kDa Mtb protein] | 2 | 5% | 2 | 5% |  |  |  |  |  | 
13 | GVFDFPDSGTHSW (listed as Mycobacterium tuberculosis) [32-10, aa 252-264 of 32 kDa Mtb protein (Antigen 85A)] | 3 | 8% | 2 | 5% |  |  |  |  |  | 
14 | GSFGSAPSNGWLKLGLVEFG (listed as Mycobacterium tuberculosis) [14-2, aa 19-38 of 14 kDa Mtb protein] | 6 | 15% | 3 | 8% | six |  |  |  |  | 
15 | phytohemagglutinin [reference compound] |  |  |  |  |  | robust response |  |  |  | 
16 | TT: tetanus toxoid, control antigen (Connaught) [reference compound] |  |  |  |  |  |  | 2-182 | All but six |  | 
17 | KFLEGFVRTSNIKFQD (listed as Mycobacterium tuberculosis) [32-9, aa 227-242 of 32 kDa Mtb protein (Antigen 85A)] | 3 | 8% | 3 | 8% | six |  |  |  |  | 
18 | VTLGYTSGTGQ (listed as Mycobacterium tuberculosis) [19-4, aa 107-117 of 19 kDa Mtb protein] | 2 | 5% | 3 | 8% |  |  |  |  |  | 
19 | GILTVSVAVSEGKPTEK (listed as Mycobacterium tuberculosis) [16-6, aa 119-135 of 16 kDa Mtb protein] | 2 | 5% | 1 | 3% |  |  |  |  |  | 
20 | SHYKITGTATGVD [19-5] | 1 | 3% | 3 | 8% |  |  |  |  |  | 
21 | PLLNVGKLIANNTRVWVY (listed as Mycobacterium tuberculosis) [32-8, aa 193-210 of 32 kDa Mtb protein (Antigen 85A)] | 5 | 13% | 0 | 0% |  |  |  |  | none | 25%
22 | VSETISGPRLYGEMTMQGTR (listed as Mycobacterium tuberculosis) [14-6, aa 80-99 of 14 kDa Mtb protein] | 1 | 3% | 1 | 3% |  |  |  |  |  | 
23 | LAIYHPQQFVYAGAMSGLLD (listed as Mycobacterium tuberculosis) [32-7, aa 135-154 of 32 kDa Mtb protein (Antigen 85A)] | 5 | 13% | 6 | 15% | six |  |  |  |  | 
24 | IAIGGAATGIAAVLTDGNPP [19-3] | 4 | 10% | 3 | 8% | six |  |  |  |  | 
25 | FAYGSFVRTVSLPVGA (listed as Mycobacterium tuberculosis) [16-5, aa 92-107 of 16 kDa Mtb protein] | 4 | 10% | 7 | 18% | six |  |  |  | none | 28%
26 | QAVMLGTGTPNRA (listed as Mycobacterium tuberculosis) [14-4, aa 56-68 of 14 kDa Mtb protein] | 3 | 8% | 1 | 3% |  |  |  |  |  | 
27 | QNVTGSVVCTTAAGNVN [19-2] | 3 | 8% | 4 | 10% | six |  |  |  |  | 
28 | CEVWSNVSETISGPRLYGEM (listed as Mycobacterium tuberculosis) [14-5, aa 74-93 of 14 kDa Mtb protein] | 2 | 5% | 2 | 5% |  |  |  |  |  | 
29 | ALYLLDGLRAQDD (listed as Mycobacterium tuberculosis) [32-2, aa 35-47 of 32 kDa Mtb protein (Antigen 85A)] | 3 | 8% | 2 | 5% |  |  |  |  |  | 
30 | VAVAGAAILVAGLSGCSSN [19-1] | 5 | 13% | 8 | 20% |  |  |  |  |  | 
